pIC50: −log10 of the molar value. Values joined by “and” are separate entries in the source; they are usually repeats but may differ in a detail not shown here. Identical values can stand only once. Active and inactive are the calls of the source. The rule behind the calls is not given here.
Columns and labels:
K562 [1] = test: Cytotoxicity against human K562 cells; assay type: functional, cell-based
K562 [2] = test: Antiproliferative activity against human K562 cells at 1 mM in presence of guanosine; assay type: functional, cell-based
[3] = target: Inosine-5'-monophosphate dehydrogenase 1 (Homo sapiens, UniProt P20839); test: Inhibition of human IMPDH1
[4] = target: Inosine-5'-monophosphate dehydrogenase 2 (Homo sapiens, UniProt P12268); test: Inhibition of human IMPDH2
K562 [5] = test: Antiproliferative activity against human K562 cells at 1 uM in presence of guanosine; assay type: functional, cell-based
K562 [6] = test: Induction of human K562 cell differentiation at 1 uM after 72 hrs by trypan blue exclusion assay in presence of guanosine; assay type: functional, cell-based
[7] = target: Histone deacetylase (Homo sapiens) (UniProt Q13547+O15379+Q9UBN7+Q92769+Q9UQL6+Q8WUI4+Q9BY41+Q96DB2+P56524+Q9UKV0+Q969S8); test: Inhibition of HDAC in human K562 cells using Boc-Lys[Ac]-AMC as substrate at 10 uM incubated for 10 mins prior to substrate addition measured after 80 mins by fluorescence assay; assay type: cell-based
K562 [8] = test: Antiproliferative activity against human K562 cells at 1 uM; assay type: functional, cell-based
Homo sapiens = species on record: Homo sapiens; test: Selectivity index, ratio of IC50 for human IMPDH1 to IC50 for human IMPDH2
K562 [9] = test: Induction of human K562 cell differentiation at 30 uM after 72 hrs by trypan blue exclusion assay; assay type: functional, cell-based
K562 [10] = test: Induction of human K562 cell differentiation at 1 to 30 uM after 72 hrs by trypan blue exclusion assay in presence of guanosine; assay type: functional, cell-based
K562 [11] = test: Induction of human K562 cell differentiation at 2.5 uM after 72 hrs by trypan blue exclusion assay in presence of guanosine; assay type: functional, cell-based
K562 [12] = test: Antiproliferative activity against human K562 cells at 2.5 uM; assay type: functional, cell-based
K562 [13] = test: Antiproliferative activity against human K562 cells at 2.5 uM in presence of guanosine; assay type: functional, cell-based
K562 [14] = test: Induction of human K562 cell differentiation at 5 uM after 72 hrs by trypan blue exclusion assay in presence of guanosine; assay type: functional, cell-based
K562 [15] = test: Antiproliferative activity against human K562 cells at 5 uM in presence of guanosine; assay type: functional, cell-based
K562 [16] = test: Antiproliferative activity against human K562 cells at 5 uM; assay type: functional, cell-based

Chain of Inosine-5'-monophosphate dehydrogenase 1 (P20839 whole entry): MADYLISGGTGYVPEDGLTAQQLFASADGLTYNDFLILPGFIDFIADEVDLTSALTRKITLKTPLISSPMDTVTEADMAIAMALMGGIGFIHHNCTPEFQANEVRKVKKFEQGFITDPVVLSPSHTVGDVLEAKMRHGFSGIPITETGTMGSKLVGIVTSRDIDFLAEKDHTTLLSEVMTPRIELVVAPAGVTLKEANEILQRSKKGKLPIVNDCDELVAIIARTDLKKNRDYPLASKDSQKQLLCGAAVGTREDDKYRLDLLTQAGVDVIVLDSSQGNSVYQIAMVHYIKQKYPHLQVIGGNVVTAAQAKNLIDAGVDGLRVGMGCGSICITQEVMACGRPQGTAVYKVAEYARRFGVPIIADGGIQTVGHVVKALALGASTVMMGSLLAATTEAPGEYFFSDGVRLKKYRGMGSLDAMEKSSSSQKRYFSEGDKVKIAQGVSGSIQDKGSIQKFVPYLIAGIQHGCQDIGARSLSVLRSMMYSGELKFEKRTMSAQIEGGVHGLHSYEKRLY

COc1c(C)c2c(c(O)c1C/C=C(\C)CCC(=O)Nn1cnnc1)C(=O)OC2
pIC50 (K562 [1]): 4.51

CCCC(=O)[O-].[Na+]
Activity (K562 [2]): Active

COc1c(C)c2c(c(O)c1C/C=C(\C)CCC(=O)[C@@H]1CO1)C(=O)OC2 [listing 1 of 3 here]
pIC50 (K562 [1]): 5.54
pIC50 [3]: 6.25
pIC50 [4]: 6.48

COc1c(C)c2c(c(O)c1C/C=C(\C)CCC(=O)Nc1nncs1)C(=O)OC2
pIC50 (K562 [1]): 4.57

COc1c(C)c2c(c(O)c1C/C=C(\C)CCC(=O)[C@@H]1CO1)C(=O)OC2 [listing 2 of 3 here]
pIC50 (K562 [1]): 5.64
pIC50 [3]: 6.17
pIC50 [4]: 6.41

COc1c(C)c2c(c(O)c1C/C=C(\C)CCC(=O)Nc1ccccn1)C(=O)OC2
pIC50 (K562 [1]): 4.59

COc1c(C)c2c(c(O)c1C/C=C(\C)CCC(=O)O)C(=O)OC2
Activity (K562 [5]): inactive
Activity (K562 [6]): inactive
inhibition [7]: 3%
Activity (K562 [8]): Active

COc1c(C)c2c(c(O)c1C/C=C(\C)CCC(=O)Nc1ncn[nH]1)C(=O)OC2
pIC50 (K562 [1]): 6.32
Ratio IC50 (Homo sapiens): 1.1
Activity (K562 [5]): inactive
Activity (K562 [9]): Active
pIC50 [3]: 6.98
Activity (K562 [10]): inactive
pIC50 [4]: 7.01
Activity (K562 [8]): Active

COc1c(C)c2c(c(O)c1C/C=C(\C)CCC(=O)NO)C(=O)OC2
Activity (K562 [11]): inactive
Activity (K562 [12]): Active
Activity (K562 [13]): inactive
inhibition [7]: 76%

COc1c(C)c2c(c(O)c1C/C=C(\C)CCCSC(C)=O)C(=O)OC2
pIC50 (K562 [1]): 4.59

COc1c(C)c2c(c(O)c1C/C=C(\C)CCCS)C(=O)OC2
pIC50 (K562 [1]): 4.13

COc1c(C)c2c(c(O)c1C/C=C(\C)CCC(=O)[C@@H]1CO1)C(=O)OC2 [listing 3 of 3 here]
Ratio IC50 (Homo sapiens): 1.8 and 1.7
Activity (K562 [14]): inactive
Activity (K562 [15]): inactive
inhibition [7]: 15% and 19%
Activity (K562 [16]): Active

COc1c(C)c2c(c(O)c1C/C=C(\C)CCC(=O)Nc1nnn[nH]1)C(=O)OC2
pIC50 (K562 [1]): 4.47

COc1c(C)c2c(c(O)c1C/C=C(\C)CCC(=O)Nc1nccs1)C(=O)OC2
pIC50 (K562 [1]): 4.66
